Experiment: isobaric coefficient of expansion
Settings: calorimetric method

CCCCCCO [hexan-1-ol]
isobaric coefficient of expansion
Settings	5000 kPa	10000 kPa	15000 kPa	20000 kPa	25000 kPa	30000 kPa	35000 kPa	40000 kPa	45000 kPa	50000 kPa
278.15 K	0.000821 1/K	0.0008 1/K	0.000788 1/K	0.000778 1/K	0.00076 1/K	0.000748 1/K	0.000733 1/K	0.000723 1/K	0.000716 1/K	0.000708 1/K
298.15 K	0.00085 1/K	0.000832 1/K	0.000812 1/K	0.000796 1/K	0.00078 1/K	0.000764 1/K	0.000749 1/K	0.000734 1/K	0.000724 1/K	0.000712 1/K
328.15 K	0.000929 1/K	0.0009 1/K	0.000876 1/K	0.000854 1/K	0.000833 1/K	0.000813 1/K	0.000794 1/K	0.000776 1/K	0.000759 1/K	0.000745 1/K
348.15 K	0.000995 1/K	0.00096 1/K	0.000929 1/K	0.000903 1/K	0.000875 1/K	0.000852 1/K	0.000831 1/K	0.000808 1/K	0.000791 1/K	0.000772 1/K

Reference: the NIST ThermoML archive (doi:10.1016/j.fluid.2008.10.003)
